The values below come from publication PMC7880690, “Chemical genetics and proteome-wide site mapping reveal cysteine MARylation by PARP-7 on immune-relevant protein targets” (eLife, 2021).

The target in test [1] is T1, PARP-7 (Homo sapiens, UniProt Q7Z3E1).
T1 sequence (Q7Z3E1 1-657): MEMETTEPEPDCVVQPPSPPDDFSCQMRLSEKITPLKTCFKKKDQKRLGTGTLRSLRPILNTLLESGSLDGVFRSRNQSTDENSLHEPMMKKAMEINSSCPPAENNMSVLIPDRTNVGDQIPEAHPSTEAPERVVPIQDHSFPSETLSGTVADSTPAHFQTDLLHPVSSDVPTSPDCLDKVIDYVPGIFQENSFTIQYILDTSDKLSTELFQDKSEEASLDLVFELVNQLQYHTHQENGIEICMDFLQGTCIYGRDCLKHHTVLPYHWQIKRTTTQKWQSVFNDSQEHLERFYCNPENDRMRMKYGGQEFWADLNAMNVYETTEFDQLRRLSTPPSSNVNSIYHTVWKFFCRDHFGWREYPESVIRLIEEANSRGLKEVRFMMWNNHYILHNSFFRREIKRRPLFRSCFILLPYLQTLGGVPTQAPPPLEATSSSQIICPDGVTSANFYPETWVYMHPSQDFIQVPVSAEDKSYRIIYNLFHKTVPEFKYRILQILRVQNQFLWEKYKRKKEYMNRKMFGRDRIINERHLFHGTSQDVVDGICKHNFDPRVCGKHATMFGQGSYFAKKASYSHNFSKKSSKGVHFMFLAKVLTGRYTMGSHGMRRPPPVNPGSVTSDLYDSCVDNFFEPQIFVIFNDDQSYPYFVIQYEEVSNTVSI
Nature of the test: Endogenous PARP-7 protein levels in A549 cells, western blot. To be noted: A549 cells treated with Phthal01. For orientation: A western blot detects proteins with antibodies after separation by electrophoresis.

Test [2] addresses T2, PARP11FL (Homo sapiens, UniProt Q9NR21).
T2 sequence (Q9NR21 1-338): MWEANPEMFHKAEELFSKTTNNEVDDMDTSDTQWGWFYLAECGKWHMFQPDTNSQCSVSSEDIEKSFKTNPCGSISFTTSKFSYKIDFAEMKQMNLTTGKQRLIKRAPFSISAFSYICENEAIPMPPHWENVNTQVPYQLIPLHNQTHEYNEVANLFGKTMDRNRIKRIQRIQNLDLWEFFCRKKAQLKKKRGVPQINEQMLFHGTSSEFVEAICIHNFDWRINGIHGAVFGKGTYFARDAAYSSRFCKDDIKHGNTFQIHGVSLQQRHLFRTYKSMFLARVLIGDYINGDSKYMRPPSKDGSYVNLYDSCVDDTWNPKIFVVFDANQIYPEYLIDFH
Nature of the test: ADP-ribosylation plate assay, PARP11FL.

Test [3] has as its target T3, PARP16FL (Homo sapiens, UniProt Q8N5Y8).
T3 sequence (Q8N5Y8 1-322): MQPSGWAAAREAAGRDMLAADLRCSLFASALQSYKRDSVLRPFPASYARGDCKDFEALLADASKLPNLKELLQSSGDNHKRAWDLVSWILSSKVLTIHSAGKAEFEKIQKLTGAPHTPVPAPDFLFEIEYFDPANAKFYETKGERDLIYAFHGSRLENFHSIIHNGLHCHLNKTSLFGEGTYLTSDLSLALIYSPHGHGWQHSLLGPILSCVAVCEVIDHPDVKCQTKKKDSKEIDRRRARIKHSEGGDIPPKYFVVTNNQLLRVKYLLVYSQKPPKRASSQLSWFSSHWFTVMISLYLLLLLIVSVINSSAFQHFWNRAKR
Nature of the test: ADP-ribosylation plate assay, PARP16FL.

The target of test [4] is T4, PARP3FL (Homo sapiens, UniProt Q9Y6F1).
T4 sequence (Q9Y6F1 1-533): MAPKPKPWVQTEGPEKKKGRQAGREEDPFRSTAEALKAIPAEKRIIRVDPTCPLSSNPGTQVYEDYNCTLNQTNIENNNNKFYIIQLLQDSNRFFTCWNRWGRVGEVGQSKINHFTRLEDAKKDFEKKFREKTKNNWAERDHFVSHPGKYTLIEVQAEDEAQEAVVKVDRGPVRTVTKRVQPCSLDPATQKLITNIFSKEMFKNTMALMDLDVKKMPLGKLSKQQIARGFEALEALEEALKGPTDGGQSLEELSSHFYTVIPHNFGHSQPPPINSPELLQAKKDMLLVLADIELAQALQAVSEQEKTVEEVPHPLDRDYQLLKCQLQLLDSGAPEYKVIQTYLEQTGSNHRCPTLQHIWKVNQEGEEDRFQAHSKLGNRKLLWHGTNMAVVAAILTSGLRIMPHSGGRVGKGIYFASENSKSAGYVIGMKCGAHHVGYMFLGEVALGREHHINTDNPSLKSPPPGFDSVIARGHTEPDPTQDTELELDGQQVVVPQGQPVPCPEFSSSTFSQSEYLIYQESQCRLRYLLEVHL
Nature of the test: ADP-ribosylation plate assay, PARP3FL.

As a reminder, the IC50 is the midpoint of a concentration-inhibition curve. A lower IC50 goes with greater potency. In the case of `N#Cc1ccc(N2CCN(C(=O)c3cc(Cc4n[nH]c(=O)c5ccccc45)ccc3F)CC2)nc1` [Phthal01, 6-(4-(2-fluoro-5-((4-oxo-3,4-dihydrophthalazin-1-yl)methyl)benzoyl)piperazin-1-yl)nicotinonitrile], the “endogenous PARP-7 protein levels” value in test [1] was “increase substantially”. Also, the figures for the 50% inhibitory concentration (IC50) in test [2], in test [3] and in test [4] were 460 ± 20 nM, 4300 ± 1000 nM and 320 ± 2 nM, respectively.
